ChEMBL document CHEMBL1155591, “New anabaenopeptins, potent carboxypeptidase-A inhibitors from the cyanobacterium Aphanizomenon flos-aquae” (J Nat Prod, 2000)
The source made the active and inactive calls. No cut-off for these calls is given here. Starred links: 1 amine or outer side, 2 acyl side, 3 side chain; linkers in the order of their positions; H or OH if unused. Positions of bridges follow the written chain, without caps; N, C: chain ends. Non-standard residues stand in square brackets, D forms with d. Residues, ends and D or L forms follow the SMILES beside them. NMehTyr = CN[C@@H](CCc1ccc(O)cc1)C(=O)O; hTyr = N[C@@H](CCc1ccc(O)cc1)C(=O)O; NMeA = CN[C@@H](C)C(=O)O; CO = O=C([*:1])[*:2]

What was measured:
[1] = target: T1, Carboxypeptidase A1 (Homo sapiens) (UniProt P15085); experiment: Inhibition of carboxypeptidase A at 10 ug/ml
T1 sequence (whole entry): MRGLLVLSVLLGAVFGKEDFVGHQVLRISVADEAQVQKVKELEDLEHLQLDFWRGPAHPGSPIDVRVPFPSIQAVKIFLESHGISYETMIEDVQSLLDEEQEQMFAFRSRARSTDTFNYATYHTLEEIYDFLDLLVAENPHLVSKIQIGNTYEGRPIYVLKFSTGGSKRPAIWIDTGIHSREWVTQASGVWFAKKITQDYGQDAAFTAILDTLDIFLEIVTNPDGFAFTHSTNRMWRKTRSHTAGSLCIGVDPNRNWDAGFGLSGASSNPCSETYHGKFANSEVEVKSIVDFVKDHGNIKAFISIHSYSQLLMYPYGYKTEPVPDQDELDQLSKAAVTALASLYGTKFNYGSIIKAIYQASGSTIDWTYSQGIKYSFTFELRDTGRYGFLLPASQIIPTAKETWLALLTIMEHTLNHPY

Carboxypeptidase A1 = target: T2, Carboxypeptidase A1 (Homo sapiens, UniProt P15085); experiment: Inhibition of carboxypeptidase A
T2 sequence (P15085 whole entry): T1 sequence (whole entry)

SMILES	Activity [1]	IC50 (Carboxypeptidase A1) [nM]
CC(C)[C@@H]1NC(=O)[C@H](NC(=O)N[C@@H](CCCNC(=N)N)C(=O)O)CCCCNC(=O)[C@H](Cc2ccccc2)NC(=O)[C@H](C)N(C)C(=O)[C@H](CCc2ccc(O)cc2)N(C)C1=O	inactive	
CC[C@H](C)[C@@H]1NC(=O)[C@H](NC(=O)N[C@@H](CCCNC(=N)N)C(=O)O)CCCCNC(=O)[C@H](Cc2ccccc2)NC(=O)[C@H](C)N(C)C(=O)[C@H](CCc2ccc(O)cc2)NC1=O ({Arg-CO}-[dK]I[hTyr][NMeA]F; lactam 1-C)	inactive	
CC[C@H](C)[C@H](NC(=O)N[C@@H]1CCCCNC(=O)[C@H](CC(C)C)NC(=O)[C@H](C)N(C)C(=O)[C@H](CCc2ccc(O)cc2)NC(=O)[C@H](C(C)C)NC1=O)C(=O)O [ANABAENOPEPTIN I] ({Ile-CO}-[dK]V[hTyr][NMeA]L; lactam 1-C)		6.84
CC(C)[C@@H]1NC(=O)[C@H](NC(=O)N[C@@H](CCCNC(=N)N)C(=O)O)CCCCNC(=O)[C@H](Cc2ccccc2)NC(=O)[C@H](C)N(C)C(=O)[C@H](CCc2ccc(O)cc2)NC1=O ({Arg-CO}-[dK]V[hTyr][NMeA]F; lactam 1-C)	inactive	
CC[C@H](C)[C@@H]1NC(=O)[C@H](NC(=O)N[C@@H](CCCNC(=N)N)C(=O)O)CCCCNC(=O)[C@H]([C@@H](C)CC)NC(=O)[C@H](CCc2ccc(O)cc2)N(C)C(=O)[C@H](CCc2ccc(O)cc2)NC1=O [ANABAENOPEPTIN H] ({Arg-CO}-[dK]I[hTyr][NMehTyr]I; lactam 1-C)		3680
CC[C@H](C)[C@@H]1NC(=O)[C@H](NC(=O)N[C@@H](Cc2ccc(O)cc2)C(=O)O)CCCCNC(=O)[C@H]([C@@H](C)CC)NC(=O)[C@H](CCc2ccc(O)cc2)N(C)C(=O)[C@H](CCc2ccc(O)cc2)NC1=O [ANABAENOPEPTIN G] ({Tyr-CO}-[dK]I[hTyr][NMehTyr]I; lactam 1-C)		7.53
CC[C@H](C)[C@H](NC(=O)N[C@@H]1CCCCNC(=O)[C@H]([C@@H](C)CC)NC(=O)[C@H](CCc2ccc(O)cc2)N(C)C(=O)[C@H](CCc2ccc(O)cc2)NC(=O)[C@H](C(C)C)NC1=O)C(=O)O [ANABAENOPEPTIN T] ({Ile-CO}-[dK]V[hTyr][NMehTyr]I; lactam 1-C)		25.4
CC[C@H](C)[C@H](NC(=O)N[C@@H]1CCCCNC(=O)[C@H](Cc2ccccc2)NC(=O)[C@H](C)N(C)C(=O)[C@H](CCc2ccc(O)cc2)NC(=O)[C@H](C(C)C)NC1=O)C(=O)O [ANABAENOPEPTIN J] ({Ile-CO}-[dK]V[hTyr][NMeA]F; lactam 1-C)		9.57
